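The compound was tested at five concentrations on cells cultured in 96-well plates, with a 48-hour exposure period. GI50 marks 50% less growth. TGI: total growth inhibition.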
Columns and labels:
Assay in all cases: NCI-60 cell line screen, 48 h
U251 CNS = test system: U251 CNS
HOP-62 NSCLC = test system: HOP-62 NSCLC
KM12 colon = test system: KM12 colon
PC-3 prostate = test system: PC-3 prostate
HCC-2998 colon = test system: HCC-2998 colon
SK-MEL-28 melanoma = test system: SK-MEL-28 melanoma
UO-31 renal = test system: UO-31 renal
SK-MEL-2 melanoma = test system: SK-MEL-2 melanoma
SNB-75 CNS = test system: SNB-75 CNS
HL-60(TB) leukemia = test system: HL-60(TB) leukemia
K-562 leukemia = test system: K-562 leukemia
NCI/ADR-RES ovarian = test system: NCI/ADR-RES ovarian
UACC-62 melanoma = test system: UACC-62 melanoma
SW-620 colon = test system: SW-620 colon
OVCAR-4 ovarian = test system: OVCAR-4 ovarian
IGROV1 ovarian = test system: IGROV1 ovarian
HOP-92 NSCLC = test system: HOP-92 NSCLC
UACC-257 melanoma = test system: UACC-257 melanoma
NCI-H460 lung = test system: NCI-H460 lung
MDA-MB-231 breast = test system: MDA-MB-231 breast
M14 melanoma = test system: M14 melanoma
MOLT-4 leukemia = test system: MOLT-4 leukemia
MDA-MB-435 = test system: MDA-MB-435
CCRF-CEM leukemia = test system: CCRF-CEM leukemia
HS 578T breast = test system: HS 578T breast
SK-MEL-5 melanoma = test system: SK-MEL-5 melanoma
CAKI-1 renal = test system: CAKI-1 renal
A549 NSCLC = test system: A549 NSCLC
SR leukemia = test system: SR leukemia
NCI-H522 lung = test system: NCI-H522 lung
ACHN renal = test system: ACHN renal
NCI-H23 lung = test system: NCI-H23 lung
OVCAR-8 ovarian = test system: OVCAR-8 ovarian
LOX IMVI melanoma = test system: LOX IMVI melanoma
COLO 205 colon = test system: COLO 205 colon
SNB-19 CNS = test system: SNB-19 CNS
786-0 renal = test system: 786-0 renal
RXF 393 renal = test system: RXF 393 renal
HCT-15 colon = test system: HCT-15 colon
RPMI-8226 leukemia = test system: RPMI-8226 leukemia
SF-295 CNS = test system: SF-295 CNS
TK-10 renal = test system: TK-10 renal
OVCAR-5 ovarian = test system: OVCAR-5 ovarian
A498 renal = test system: A498 renal
BT-549 breast = test system: BT-549 breast
HT29 colon = test system: HT29 colon
SN12C renal = test system: SN12C renal
SF-539 CNS = test system: SF-539 CNS
DU-145 prostate = test system: DU-145 prostate
SK-OV-3 ovarian = test system: SK-OV-3 ovarian
HCT-116 colon = test system: HCT-116 colon
MCF7 breast = test system: MCF7 breast
NCI-H226 lung = test system: NCI-H226 lung
MALME-3M melanoma = test system: MALME-3M melanoma
EKVX NSCLC = test system: EKVX NSCLC
SF-268 CNS = test system: SF-268 CNS
OVCAR-3 ovarian = test system: OVCAR-3 ovarian
T-47D breast = test system: T-47D breast

SMILES: CCO/C=N/C1=C(C#N)C(c2ccc(Cl)cc2)c2sc3c(CC)cccc3c2O1 (stereo unspecified)
- GI50 (U251 CNS): 2.38 µM
- TGI (U251 CNS): 13.5 µM
- GI50 (HOP-62 NSCLC): 4.78 µM
- TGI (HOP-62 NSCLC): 23.6 µM
- GI50 (KM12 colon): 0.876 µM
- TGI (KM12 colon): 12.5 µM
- GI50 (PC-3 prostate): 0.788 µM
- TGI (PC-3 prostate): 11.4 µM
- GI50 (HCC-2998 colon): 1.65 µM
- TGI (HCC-2998 colon): 4.95 µM
- GI50 (SK-MEL-28 melanoma): 4.04 µM
- TGI (SK-MEL-28 melanoma): 20.4 µM
- GI50 (UO-31 renal): 2.2 µM
- TGI (UO-31 renal): 16 µM
- GI50 (SK-MEL-2 melanoma): 1.65 µM
- TGI (SK-MEL-2 melanoma): 18.3 µM
- GI50 (SNB-75 CNS): 0.206 µM
- TGI (SNB-75 CNS): 2.01 µM
- GI50 (HL-60(TB) leukemia): 1.34 µM
- TGI (HL-60(TB) leukemia): 11.7 µM
- GI50 (K-562 leukemia): 0.553 µM
- TGI (K-562 leukemia): 20.6 µM
- GI50 (NCI/ADR-RES ovarian): 0.475 µM
- TGI (NCI/ADR-RES ovarian): 3.14 µM
- GI50 (UACC-62 melanoma): 0.596 µM
- TGI (UACC-62 melanoma): 17.4 µM
- GI50 (SW-620 colon): 0.71 µM
- TGI (SW-620 colon): 16.9 µM
- GI50 (OVCAR-4 ovarian): 4.79 µM
- TGI (OVCAR-4 ovarian): 19.6 µM
- GI50 (IGROV1 ovarian): 0.702 µM
- TGI (IGROV1 ovarian): 14.7 µM
- GI50 (HOP-92 NSCLC): 1.53 µM
- TGI (HOP-92 NSCLC): 17.8 µM
- GI50 (UACC-257 melanoma): 11.1 µM
- TGI (UACC-257 melanoma): 26.1 µM
- GI50 (NCI-H460 lung): 1.74 µM
- TGI (NCI-H460 lung): 14.2 µM
- GI50 (MDA-MB-231 breast): 3.96 µM
- TGI (MDA-MB-231 breast): 16.9 µM
- GI50 (M14 melanoma): 1.21 µM
- TGI (M14 melanoma): 11.7 µM
- GI50 (MOLT-4 leukemia): 3.02 µM
- TGI (MOLT-4 leukemia): 17 µM
- GI50 (MDA-MB-435): 0.307 µM
- TGI (MDA-MB-435): 0.878 µM
- GI50 (CCRF-CEM leukemia): 1.66 µM
- TGI (CCRF-CEM leukemia): 24.9 µM
- GI50 (HS 578T breast): 1.85 µM
- TGI (HS 578T breast): 12.6 µM
- GI50 (SK-MEL-5 melanoma): 4.19 µM
- TGI (SK-MEL-5 melanoma): 16.4 µM
- GI50 (CAKI-1 renal): 0.703 µM
- TGI (CAKI-1 renal): 18 µM
- GI50 (A549 NSCLC): 1.25 µM
- TGI (A549 NSCLC): 17.2 µM
- GI50 (SR leukemia): 0.651 µM
- TGI (SR leukemia): 18.4 µM
- GI50 (NCI-H522 lung): 0.433 µM
- TGI (NCI-H522 lung): 4.57 µM
- GI50 (ACHN renal): 1.21 µM
- TGI (ACHN renal): 15.4 µM
- GI50 (NCI-H23 lung): 2.56 µM
- TGI (NCI-H23 lung): 13.1 µM
- GI50 (OVCAR-8 ovarian): 2.77 µM
- TGI (OVCAR-8 ovarian): 15.1 µM
- GI50 (LOX IMVI melanoma): 1.45 µM
- TGI (LOX IMVI melanoma): 14.4 µM
- GI50 (COLO 205 colon): 3.36 µM
- TGI (COLO 205 colon): 11.1 µM
- GI50 (SNB-19 CNS): 1.9 µM
- TGI (SNB-19 CNS): 13.9 µM
- GI50 (786-0 renal): 2.23 µM
- TGI (786-0 renal): 14 µM
- GI50 (RXF 393 renal): 1.41 µM
- TGI (RXF 393 renal): 5.57 µM
- GI50 (HCT-15 colon): 0.617 µM
- TGI (HCT-15 colon): 10.6 µM
- GI50 (RPMI-8226 leukemia): 2.42 µM
- TGI (RPMI-8226 leukemia): 14.4 µM
- GI50 (SF-295 CNS): 0.331 µM
- TGI (SF-295 CNS): 1.27 µM
- GI50 (TK-10 renal): 7.79 µM
- TGI (TK-10 renal): 20.6 µM
- GI50 (OVCAR-5 ovarian): 3.24 µM
- TGI (OVCAR-5 ovarian): 14.4 µM
- GI50 (A498 renal): 0.416 µM
- TGI (A498 renal): 10.7 µM
- GI50 (BT-549 breast): 2.64 µM
- TGI (BT-549 breast): 16.5 µM
- GI50 (HT29 colon): 2.39 µM
- TGI (HT29 colon): 10.1 µM
- GI50 (SN12C renal): 3.03 µM
- TGI (SN12C renal): 14.5 µM
- GI50 (SF-539 CNS): 1.43 µM
- TGI (SF-539 CNS): 3.6 µM
- GI50 (DU-145 prostate): 2.49 µM
- TGI (DU-145 prostate): 12.4 µM
- GI50 (SK-OV-3 ovarian): 5.26 µM
- TGI (SK-OV-3 ovarian): 21 µM
- GI50 (HCT-116 colon): 0.801 µM
- TGI (HCT-116 colon): 12.5 µM
- GI50 (MCF7 breast): 0.475 µM
- TGI (MCF7 breast): 10.7 µM
- GI50 (NCI-H226 lung): 5.94 µM
- TGI (NCI-H226 lung): 25.3 µM
- GI50 (MALME-3M melanoma): 10.1 µM
- TGI (MALME-3M melanoma): 22.6 µM
- GI50 (EKVX NSCLC): 2.11 µM
- TGI (EKVX NSCLC): 14.8 µM
- GI50 (SF-268 CNS): 4.99 µM
- TGI (SF-268 CNS): 21.1 µM
- GI50 (OVCAR-3 ovarian): 0.813 µM
- TGI (OVCAR-3 ovarian): 13.2 µM
- GI50 (T-47D breast): 2.51 µM
- TGI (T-47D breast): 15.5 µM

From PubChem BioAssay (NCI)
